According to US12522596B2, “Compounds as GLP-1R agonists” (Terns Pharmaceuticals, Inc., priority 2021, dated 2026):

How the values were obtained:
human GLP-1R receptor = biological target: T1, human GLP-1R receptor (Homo sapiens, UniProt P43220); assay: GLP-1R low expression cell assay (cAMP TR-FRET, CHO-K1_hGLP-1Rlow_clone10); assay type: cell-based; conditions: CHO-K1_hGLP-1Rlow_clone10 cells
T1 construct: expressed in transfected cells
Experimental: Stable cell lines expressing high and low GLP-1R surface expression were generated in CHO-K1 cells transfected (Fugene 6) with a puromycin selectable DNA plasmid encoding human GLP-1R receptor (accession number: NM_002062.5) under control of an EF1A promoter. Transfected cells were seeded into 24-well plates (9,000 cells/well) containing complete medium and incubated in a humidified incubator at 37° C. with 5% carbon dioxide. After overnight incubation, medium was replaced with complete medium supplemented with puromycin (6 μg/mL) and refreshed every 2-3 days to select for stably transfected cells. Individual pools of selected cells were expanded prior to analysis for responsiveness to GLP-1 control peptide using a TR-FRET assay to detect cAMP (LANCE Ultra CAMP Assay, Perkin Elmer). Briefly, cells were collected in Versene solution, plated in 384-well plates (1,000 cells/well) and combined with serially diluted GLP-1R control peptide (10 nL) using an acoustic dispenser (ECHO). Plates were incubated for 30 minutes at 25° C. prior to the addition of EU-CAMP tracer (5 μL) and Ulight-anti-cAMP (5 μL) reagents to each well, followed by 15 minutes incubation at 25° C. TR-FRET signal was detected using an En Vision Multimode Plate Reader (excitation=320 nm; emission=615 and 655 nm). Dose-response curves were used to generate EC50 values as a measure of responsiveness to the GLP-1R control peptide. Selected cell lines were monitored for responsiveness over multiple passages to ensure stability. […] Briefly, GLP-1R expression was analyzed by flow cytometry using a fluorescein-labeled Exendin-4 peptide fluorescent probe (FLEX). Cells were harvested in Versene solution and washed 3-times with PBS+0.5% BSA before incubation with FLEX reagent (10 μM) for 2 hours at room temperature. After incubation, cells were washed 3-times in PBS+0.5% BSA before final resuspension in PBS prior to analysis by flow cytometry to measure FLEX mean fluorescence intensity (MFI) as a measure of GLP-1R expression on the cell surface.
For compound testing in the CHO-K1_hGLP-1Rlow_clone10 cell line, cells were seeded in 384-well plates (1,000 cells/well). Test compounds were serially diluted in DMSO (10-point, 3-fold dilution), added to wells using an ECHO dispenser (10 nL/well) and plates were centrifuged for 1 min and agitated for 2 min at room temperature prior to 30-minute incubation at 25° C. After incubation, Eu-CAMP (5 μL) and Ulight-anti-cAMP (5 μL) reagents were added to each well, followed by centrifugation for 1 minute, agitation for 2 minutes at room temperature, and final incubation of the plates at 25° C. for 15 minutes. Plates were read using an EnVision microplate reader (excitation=320 nm; emission=615 and 655 nm). Dose-response curves were generated from duplicate wells based on percent activation calculated relative to a control GLP-1 peptide agonist that was run in parallel. EC50 values were determined by fitting percent activation as a function of compound concentration using the Hill equation (XLfit).
Stable cell lines expressing high and low GLP-1R surface expression were generated in CHO-K1 cells transfected (Fugene 6) with a puromycin selectable DNA plasmid encoding human GLP-1R receptor (accession number: NM_002062.5) under control of an EF1A promoter. Transfected cells were seeded into 24-well plates (9,000 cells/well) containing complete medium and incubated in a humidified incubator at 37° C. with 5% carbon dioxide. After overnight incubation, medium was replaced with complete medium supplemented with puromycin (6 μg/mL) and refreshed every 2-3 days to select for stably transfected cells. Individual pools of selected cells were expanded prior to analysis for responsiveness to GLP-1 control peptide using a TR-FRET assay to detect cAMP (LANCE Ultra CAMP Assay, Perkin Elmer).

[1] = Metabolic stability in rat hepatocytes; assay type: in vitro ADME; conditions: cryopreserved hepatocytes, 1 μM
Experimental: (§1) Test compounds were incubated in rat and human hepatocytes and stability was assessed from the substrate […] approach. Test compounds were dissolved in dimethyl sulfoxide (DMSO) to create a 10 mM Stock, and then further diluted to create a 1000× Working Stock of 1 mM with DMSO in 96-well plates for test compounds and the positive control (midazolam). Vials containing cryopreserved hepatocytes were removed from the liquid nitrogen tank and immediately immersed in a 37° C. water bath. The vials were shaken gently until the contents had thawed and were then immediately emptied into 48 mL of pre-warmed HT Medium in a 50 mL conical tube. Cells remaining in the vial were resuspended with 1.0 mL of pre-warmed HT Medium and added to the conical tube. The tube was capped and then gently inverted several times to resuspend the hepatocytes. The cell suspension was centrifuged at 50×g at room temperature for 5 minutes and the supernatant discarded. The cell pellet was loosened by gently swirling the centrifuge tube and was re-suspended in 4 mL of warm Dulbecco's Modified Eagle medium (DMEM). Cell density was determined by a cell counter by Nexcelom, and DMEM medium was added to obtain a target density of 1×10^6 cells/mL. The assay was carried out in 96-well microtiter plates. Test Compounds were incubated at 1 μM with 1×10^6 cells/mL hepatocytes in DMEM for 0, 30, 60, 120 and 240 minutes. The incubation was carried out with gentle shaking at 37° C. under a humid atmosphere of 95% air/5% CO2. The volume of the incubation mixture was 37 μL with a final 0.1% DMSO. At each of the time points, the incubation was stopped by adding 150 μL quenching solution (100% acetonitrile, 0.1% formic acid containing bucetin as an internal standard for positive ESI mode). Subsequently, the mixtures were vortexed for 20 min and centrifuged at 4,000 RPM at 10° C. The supernatant (80 μL) was transferred to a clean 96-well plate and analyzed by LC-MS/MS. Midazolam at 1 μM with a final 0.1% DMSO was included as a positive control to verify assay performance. The percent parent remaining, intrinsic and predicted hepatic clearance and t1/2 were calculated. All samples were analyzed by LC-MS/MS using an AB Sciex API 4000 instrument, coupled to a Shimadzu LC-20AD LC Pump system. Separation was achieved using a Waters Atlantis T3 dC18 reverse phase HPLC column (20 mm×2.1 mm) at a flow rate of 0.5 mL/min. The mobile phase consisted of 0.1% formic acid in water (solvent A) and 0.1% formic acid in 100% acetonitrile (solvent B). Elution conditions are detailed below.
(§2) The ion optics of each test compound were optimized for their declustering potential (DP), […] (CE), collision-cell exit potential (CXP) and used in a selected ion monitoring experiment in the positive ion mode. The peak area ratio of each test compound to internal standard was then evaluated for stability. The extent of metabolism was calculated based on the disappearance of the test compound, compared to its initial concentration. The initial rates of clearance of the test compound were calculated using the linear regression plot of semi-log % remaining of the compound versus time. The elimination rate constant (k) of the linear regression plot was then used to determine t1/2 and the intrinsic clearance (CLint) using the following formula, where Chepatocyte (million cells/mL) is the cell density of the incubation:
(§3) The predicted hepatic clearance (CLhep) was calculated using the well stirred method with the following formula with CLint(in vivo) normalized based on liver weight: […]
(§4) The relevant physiological parameters of liver weight, blood flow, and hepatocellularity for various species are listed below: […]

rat hepatocytes = assay: Metabolic stability in rat hepatocytes; assay type: in vitro ADME
Experimental: as §1, §2, §3, §4

[2] = Metabolic stability in human hepatocytes; assay type: in vitro ADME; conditions: cryopreserved hepatocytes; human hepatocytes, 1 μM
Experimental: as §1, §2, §3, §4

[3] = Rat pharmacokinetics, oral dosing; assay type: in vivo, Sprague-Dawley rats; conditions: for Cmax / AUC(0-t) / half-life: male, Sprague-Dawley, rat plasma
Experimental: Oral dosing: Compounds were formulated at 0.3 mg/mL or 0.6 mg/mL in a solution comprising 5% polyethylene glycol 400 and 95% (12% (w/v) sulfobutyl-β-cyclodextrin in water) (v/v). Formulated compounds were administered to male, 7-11 week old Sprague-Dawley rats by oral gavage at a dose of 3 mg/kg.
Sample collection: Blood collections of about 0.2 mL per time point were performed from jugular vein or other suitable site of each animal, into pre-chilled commercial EDTA-K2 tubes and placed on wet ice until centrifugation. Blood samples were processed for plasma by centrifugation at approximately 4° C., 3,200 g for 10 min. Plasma was collected and transferred into pre-labeled 96 well plate or polypropylene tubes, quick frozen over dry ice and kept at −60° C. or lower until LC-MS/MS analysis.
Data analysis: Plasma concentration versus time data was plotted in graph and analyzed by non-compartmental approaches using the Phoenix WinNonlin 6.3 software program. Related PK parameters were calculated according to dosing route, e.g., CL, Vdss and C0 for intravenous administration, Cmax, Tmax or % F for extravascular administration, and T1/2, AUC(0-t), AUC(0-inf), MRT(0-t), MRT(0-inf) for all routes.

[4] = rat, plasma, po, 3 mg/kg, 3 mg/kg PO (0.3 mg/mL)

T1 sequence (P43220 24-463): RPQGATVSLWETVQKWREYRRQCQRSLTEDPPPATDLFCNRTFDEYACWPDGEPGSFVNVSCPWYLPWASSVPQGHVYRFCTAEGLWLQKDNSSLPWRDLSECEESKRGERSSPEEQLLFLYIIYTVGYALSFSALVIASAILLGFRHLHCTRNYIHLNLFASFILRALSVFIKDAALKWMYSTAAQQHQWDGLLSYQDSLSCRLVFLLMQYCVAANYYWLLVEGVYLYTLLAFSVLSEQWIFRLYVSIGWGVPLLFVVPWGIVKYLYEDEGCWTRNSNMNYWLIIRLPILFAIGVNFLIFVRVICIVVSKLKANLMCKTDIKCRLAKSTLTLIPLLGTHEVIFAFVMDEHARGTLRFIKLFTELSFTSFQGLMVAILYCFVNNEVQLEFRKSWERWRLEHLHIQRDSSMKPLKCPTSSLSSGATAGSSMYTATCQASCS

| SMILES | EC50 (human GLP-1R receptor) | CLint scaled at 1 μM [1] | half-life at 1 μM [1] | CLint relative to reference standard (rat hepatocytes) | Half-life relative to reference (rat hepatocytes) | CLint scaled at 1 μM [2] | half-life at 1 μM [2] | further results |
| --- | --- | --- | --- | --- | --- | --- | --- | --- |
| Cc1ncsc1Cn1c(CN2CCC3(c4cccc(OCc5ccc(C#N)cc5F)n4)CC3C2)nc2ccc(C(=O)O)cc21 (stereo not drawn) [Compound 12] | 232 nM | 91.7 ± 1.76 mL/min/kg | 0.604 ± 0.0117 h | significantly increased | significantly lower | 26.8 ± 0.8 mL/min/kg | 1.49 ± 0.0445 h | – |
| O=C(O)c1ccc2nc(CN3CC[C@@]4(c5cccc(OCc6ccc(Cl)cc6F)n5)C[C@H]4C3)n(Cc3cncs3)c2c1 [Compound 25] | 24.4 nM | – | – | – | – | – | – | Cmax ([3]; rat, plasma, po, 3 mg/kg, 3 mg/kg PO (0.6 mg/mL)): 412 ± 98.3 ng/mL; AUC(0-t) ([3]; 3 mg/kg PO (0.6 mg/mL)): 558 ± 100 ng·h/mL; half-life ([3]; 3 mg/kg PO (0.6 mg/mL)): 1.52 ± 0.21 h; PK properties relative to Reference Compound A ([3]; rat, dosed orally): similarly improved PK properties |
| N#Cc1ccc(COc2cccc(C3CCN(Cc4nc5ccc(C(=O)O)cc5n4Cc4scnc4Cl)CC3)n2)c(F)c1 [Compound 15] | 25.8 nM | – | – | – | – | – | – | – |
| CCc1scnc1Cn1c(CN2CCC(c3cccc(OCc4nc5c(F)cc(C#N)cc5s4)n3)CC2)nc2ccc(C(=O)O)cc21 [Compound 13] | 724 nM | – | – | – | significantly lower | – | – | – |

Further lines, with some results ahead:

| EC50 (human GLP-1R receptor) | CLint scaled at 1 μM [1] | half-life at 1 μM [1] | CLint relative to reference standard (rat hepatocytes) | Half-life relative to reference (rat hepatocytes) | CLint scaled at 1 μM [2] | half-life at 1 μM [2] | SMILES | further results |
| --- | --- | --- | --- | --- | --- | --- | --- | --- |
| 90.6 nM | – | – | – | – | – | – | C=Cc1ncsc1Cn1c(CN2CCC(c3cccc(OCc4nc5c(F)cc(C#N)cc5s4)n3)CC2)nc2ccc(C(=O)O)cc21 [Compound 7] | – |
| 4 nM | 24.1 ± 0.83 mL/min/kg | 2.3 ± 0.0792 h | significantly lower | significantly higher | 20.9 ± 0.98 mL/min/kg | 1.92 ± 0.0905 h | [2H]C([2H])(Oc1cccc(C2CCN(Cc3nc4ccc(C(=O)O)cc4n3Cc3cncs3)CC2)n1)c1ccc(Cl)cc1F [Compound 26] | – |
| 3.3 nM | 57.9 ± 1.25 mL/min/kg | 0.957 ± 0.0205 h | significantly increased | significantly lower | 42.3 ± 1.59 mL/min/kg | 1.11 ± 0.0523 h | O=C(O)c1ccc2nc(CN3CCC(c4nccc(OCc5ccc(Cl)cc5F)n4)CC3)n(Cc3cncs3)c2c1 [Compound 23] | – |
| 16.6 nM | – | – | – | – | – | – | N#Cc1cc(F)c2nc(COc3cccc(C4CCN(Cc5nc6ccc(C(=O)O)cc6n5Cc5ccns5)CC4)n3)sc2c1 [Compound 9] | – |
| 292 nM | – | – | – | – | – | – | Cc1scnc1Cn1c(CN2CCC(c3cccc(OCc4nc5c(F)cc(C#N)cc5s4)n3)CC2)nc2ccc(C(=O)O)cc21 [Compound 11] | – |
| 44.2 nM | – | – | – | – | – | – | N#Cc1cc(F)c2c(c1)CCN(c1cccc(C3CCN(Cc4nc5ccc(C(=O)O)cc5n4Cc4cncs4)CC3)n1)C2 [Compound 3] | AUC(0-t) [3, 4]: 116 ± 23.2 ng·h/mL; Cmax [3, 4]: 79.8 ± 24.4 ng/mL; half-life [3, 4]: 1.1 ± 0.29 h |
